Measurements from patent US20050026189A1, “Microbial operons” (priority 2003, published 2005).
≈ marks a conversion by molar mass, not a printed value. Like-named read-outs stand apart in the source and are kept apart here. Positions of bridges follow the written chain, without caps; N, C: chain ends. Non-standard residues stand in square brackets, D forms with d. Residues, ends and D or L forms follow the SMILES beside them. *: point of attachment. Ileψ(thiazoline)Cys = CC[C@H](C)[C@H](N)C1=N[C@H](C(=O)*)CS1; dOrn = NCCC[C@@H](N)C(=O)O

Experiments:
[1] = tested on: E. coli transcribing antisense RNA to rplL and rplJ (AS-rplL/J); assay: microbe, parasite or virus in culture; format: cell-based; details: for Fold Increase in Sensitivity: IC50 without IPTG versus IC50 with 400 μM IPTG; for Sensitivity Increased?: statistically significant decrease in the IC50 value in the presence of inducer (IPTG); for IC50: Escherichia coli
Method: The effectiveness of the above assays was validated using proliferation-required genes from E. coli which were identified using procedures similar to those described above. Antibiotics of various chemical classes and modes of action were purchased from Sigma Chemicals (St. Louis, Mo.). Stock solutions were prepared by dissolving each antibiotic in an appropriate aqueous solution based on information provided by the manufacturer. The final working solution of each antibiotic contained no more than 0.2% (w/v) of any organic solvent. To determine their potency against a bacterial strain engineered for transcription of an antisense comprising a nucleotide sequence complementary to a proliferation-required 50S ribosomal protein, each antibiotic was serially diluted two- or three-fold in growth medium supplemented with the appropriate antibiotic for maintenance of the antisense construct. At least ten dilutions were prepared for each antibiotic. 25 μL aliquots of each dilution were transferred to discrete wells of a 384-well microplate (the assay plate) using a multi-channel pipette. Quadruplicate wells were used for each dilution of an antibiotic under each treatment condition (plus and minus inducer). Each assay plate contained twenty wells for cell growth controls (growth medium replacing antibiotic), ten wells for each treatment (plus and minus inducer, in this example IPTG). Assay plates were usually divided into the two treatments: half the plate containing induced cells and an appropriate concentrations of inducer (in this example IPTG) to maintain the state of induction, the other half containing non-induced cells in the absence of IPTG.
Cells for the assay were prepared as follows. Bacterial cells containing a construct, from which transcription of antisense nucleic acid comprising a nucleotide sequence complementary to rplL and rplJ (AS-rplL/J), which encode proliferation-required 50S ribosomal subunit proteins, is inducible in the presence of IPTG, were grown into exponential growth (OD600 0.2 to 0.3) and then diluted 1:100 into fresh medium containing either 400 μM or 0 μM inducer (IPTG). These cultures were incubated at 37° C. for 2.5 hr. After a 2.5 hr incubation, induced and non-induced cells were respectively diluted into an assay medium at a final OD600 value of 0.0004. The medium contained an appropriate concentration of the antibiotic for the maintenance of the antisense construct. In addition, the medium used to dilute induced cells was supplemented with 800 μM IPTG so that addition to the assay plate would result in a final IPTG concentration of 400 μM. Induced and non-induced cell suspensions were dispensed (25 μl/well) into the appropriate wells of the assay plate as discussed previously. The plate was then loaded into a plate reader, incubated at constant temperature, and cell growth was monitored in each well by the measurement of light scattering at 595 nm. Growth was monitored every 5 minutes until the cell culture attained a stationary growth phase. For each concentration of antibiotic, a percentage inhibition of growth was calculated at the time point corresponding to mid-exponential growth for the associated control wells (no antibiotic, plus or minus IPTG). For each antibiotic and condition (plus or minus IPTG), a plot of percent inhibition versus log of antibiotic concentration was generated and the IC50 determined.

[2] = tested on: Staphylococcus aureus cells transcribing antisense to gyrB; assay: Antibiotic potency in Staphylococcus aureus cells with and without xylose-induced antisense to the Beta subunit of DNA gyrase (FIG. 10); format: cell-based; details: 12 mM xylose versus 0 mM xylose; antisense to β subunit of gyrase
Method: Antibiotics of various chemical classes and modes of action were purchased from chemical suppliers, for example Sigma Chemicals (St. Louis, Mo). Stock solutions were prepared by dissolving each antibiotic in an appropriate aqueous solution based on information provided by the manufacturer. The final working solution of each antibiotic contained no more than 0.2% (w/v) of any organic solvent.
To determine its potency against a bacterial strain containing an antisense nucleic acid comprising a nucleotide sequence complementary to the nucleotide sequence encoding the Beta subunit of DNA gyrase (which is required for proliferation) under the control of a xylose inducible promoter, each antibiotic was serially diluted two- or three-fold in growth medium supplemented with the appropriate antibiotic for maintenance of the antisense construct. At least ten dilutions were prepared for each antibiotic.
Aliquots (25 μL) of each dilution were transferred to discrete wells of a 384-well microplate (the assay plate) using a multi-channel pipette. Quadruplicate wells were used for each dilution of an antibiotic under each treatment condition (plus and minus inducer). Each assay plate contained twenty wells for cell growth controls (growth medium, no antibiotic), ten wells for each treatment (plus and minus inducer, xylose, in this example). Half the assay plate contained induced cells (in this example Staphylococcus aureus cells) and appropriate concentrations of inducer (xylose, in this example) to maintain the state of induction while the other half of the assay plate contained non-induced cells maintained in the absence of inducer.
Cells of a bacterial clone containing a construct in which transcription of antisense comprising a nucleotide sequence complementary to the sequence encoding the Beta subunit of DNA gyrase under the control of the xylose inducible promoter (S1M10000001F08) were grown into exponential growth (OD600 0.2 to 0.3) and then diluted 1:100 into fresh medium containing either 12 mM or 0 mM inducer (xylose). These cultures were incubated at 37° C. for 2.5 hr. The presence of inducer (xylose) in the medium initiates and maintains production of antisense RNA from the antisense construct. After a 2.5 hr incubation, induced and non-induced cells were respectively diluted into an assay medium containing an appropriate concentration of the antibiotic for the maintenance of the antisense construct. In addition, medium used to dilute induced cells was supplemented with 24 mM xylose so that addition to the assay plate would result in a final xylose concentration of 12 mM. The cells were diluted to a final OD600 value of 0.0004.
Induced and non-induced cell suspensions were dispensed (25 μl/well) into the appropriate wells of the assay plate as discussed previously. The plate was then loaded into a plate reader and incubated at constant temperature while cell growth was monitored in each well by the measurement of light scattering at 595 nm. Growth was monitored every 5 minutes until the cell culture attained a stationary growth phase. For each concentration of antibiotic, a percentage inhibition of growth was calculated at the time point corresponding to mid-exponential growth for the associated control wells (no antibiotic, plus or minus xylose). For each antibiotic and condition (plus or minus xylose), plots of percent inhibition versus Log of antibiotic concentration were generated and IC50s, determined.

Row | Compound | Fold Increase in Sensitivity [1] [Fold] | Sensitivity Increased? [1] | potency in induced cells as compared to uninduced cells [2] | also measured
1 | CC[C@H](C)[C@H](N)C1=N[C@H](C(=O)N[C@@H](CC(C)C)C(=O)N[C@H](CCC(=O)O)C(=O)N[C@H](C(=O)N[C@H]2CCCCNC(=O)[C@H](CC(N)=O)NC(=O)[C@@H](CC(=O)O)NC(=O)[C@H](Cc3cnc[nH]3)NC(=O)[C@@H](Cc3ccccc3)NC(=O)[C@H]([C@@H](C)CC)NC(=O)[C@@H](CCCN)NC2=O)[C@@H](C)CC)CS1 [Bacitracin] ({Ileψ(thiazoline)Cys}-L[dE]IK[dOrn]I[dF]H[dD]N; lactam 4-C) | 1 | No | – | –
2 | CO/N=C(\C(=O)N[C@@H]1C(=O)N2C(C(=O)O)=C(COC(C)=O)CS[C@H]12)c1csc(N)n1 [Cefotaxime] | 1 | No | not significantly different | –
3 | CO[C@@]1(NC(=O)Cc2cccs2)C(=O)N2C(C(=O)O)=C(COC(N)=O)CS[C@@H]21 [Cefoxitin] | 1 | No | not significantly different | –
4 | O=C(N[C@H](CO)[C@H](O)c1ccc([N+](=O)[O-])cc1)C(Cl)Cl [Chloramphenicol] | 307 | Yes | – | –
5 | C[C@H]1c2cccc(O)c2C(=O)C2=C(O)[C@]3(O)C(=O)C(C(N)=O)=C(O)[C@@H](N(C)C)[C@@H]3[C@@H](O)[C@@H]21 [Doxycycline] | 15 | – | – | –
6 | CC(=O)O[C@H]1C[C@@]2(C)[C@@H](C[C@@H](O)[C@H]3[C@@]4(C)CC[C@@H](O)[C@@H](C)[C@@H]4CC[C@@]32C)/C1=C(\CCC=C(C)C)C(=O)O [Fusidic acid] | 94 | Yes | not significantly different | –
7 | CCC[C@@H]1C[C@@H](C(=O)N[C@@H]([C@H]2O[C@H](SC)[C@H](O)[C@@H](O)[C@H]2O)[C@@H](C)O)N(C)C1 [Lincomycin] | 145 | Yes | not significantly different | –
8 | CN(C)c1ccc(O)c2c1C[C@H]1C[C@H]3[C@H](N(C)C)C(O)=C(C(N)=O)C(=O)[C@@]3(O)C(O)=C1C2=O [Minocycline] | 172 | – | – | –
9 | CC1COc2c(N3CCN(C)CC3)c(F)cc3c(=O)c(C(=O)O)cn1c23 (stereo not drawn) [Ofloxacin] | 1 | – | – | –
10 | CN[C@@H]1[C@H](O)[C@H](NC)[C@H]2O[C@@]3(O)C(=O)C[C@@H](C)O[C@H]3O[C@@H]2[C@H]1O [Spectinomycin] | – | Yes | – | –
11 | [H]/N=C(/N)N[C@H]1[C@H](O)[C@@H](O)[C@H](O[C@@H]2O[C@@H](C)[C@](O)(C=O)[C@H]2O[C@@H]2O[C@@H](CO)[C@H](O)[C@@H](O)[C@@H]2NC)[C@@H](N/C(N)=N\[H])[C@@H]1O [Streptomycin] | 70 | Yes | – | –
12 | CN(C)[C@@H]1C(O)=C(C(N)=O)C(=O)[C@@]2(O)C(O)=C3C(=O)c4c(O)cccc4[C@@](C)(O)[C@H]3C[C@@H]12 [Tetracycline] | 109 | – | – | –
13 | NC[C@H]1O[C@H](O[C@H]2[C@H](O)[C@@H](O[C@H]3O[C@H](CO)[C@@H](O)[C@H](N)[C@H]3O)[C@H](N)C[C@@H]2N)[C@H](N)C[C@@H]1O [Tobramycin] | 51 | Yes | not significantly different | –
14 | COc1cc(Cc2cnc(N)nc2N)cc(OC)c1OC [Trimethoprim] | – | – | not significantly different | –
15 | CN[C@H](CC(C)C)C(=O)N[C@H]1C(=O)N[C@@H](CC(N)=O)C(=O)N[C@H]2C(=O)N[C@H]3C(=O)N[C@H](C(=O)N[C@H](C(=O)O)c4cc(O)cc(O)c4-c4cc3ccc4O)[C@H](O)c3ccc(c(Cl)c3)Oc3cc2cc(c3O[C@@H]2O[C@H](CO)[C@@H](O)[C@H](O)[C@H]2O[C@H]2C[C@](C)(N)[C@H](O)[C@H](C)O2)Oc2ccc(cc2Cl)[C@H]1O [Vancomycin] | 2 | No | not significantly different | IC50 ([1]; read-out: IC50 (+IPTG)): 72.5 µg/mL (≈ 50.1 µM); IC50 ([1]; read-out: IC50 (−IPTG)): 145 µg/mL (≈ 100 µM)
16 | Gentamicin | 141 | Yes | – | IC50 (+IPTG) ([1]; induced cells, 400 μM IPTG): 0.01919 µg/mL; IC50 (−IPTG) ([1]; non-induced cells, 0 μM IPTG): 2.715 µg/mL
